Test results reported in US10501460B2, “Heterocyclic compounds and uses thereof” (Plexxikon Inc., priority 2013, dated 2019).

Tests used:
[1] = tested on: bromodomain; assay: Bromodomain cell assays of Example 40 (at least one of them); type: cell-based; settings: in at least one of the bromodomain cell assays described in Example 40
Text: (§1) Published bromodomain inhibitors JQ1 and iBET 151 have shown activity in variety of cancer cells such leukemia and lymphoma, multiple myeloma cells, NUT midline carcinoma and glioblastoma cells (Dawson M A et al. 2011; Delmore J E 2011; Chen Z et al. 2013; Filippakopoulos P et al. 2010; Mertz J A et al. 2011; Ott C J et al. 2012). In this study, we test compounds in different cancer cell lines. MV-4-11 and MOLM-13 are AML cell lines harboring a MLL-AF4 and MLL-AF9 translocation, respectively. MM.1S is a multiple myeloma cell line. SK-N-AS, IMR-32 and SK-N-BE(2) are neuroblastoma cell lines. IMR-32 and SK-N-BE(2) cell lines harbor MYCN amplifications. MV-4-11, MM.1S, IMR-32, SK-N-AS and SK-N-BE(2) were obtained from ATCC (IL, USA) and MOLM-13 were purchased from DSMZ (Braunschweig, German). Cells are cultured as recommended by their sources. For growth inhibition studies 3000 cells are seeded in wells of a 96-well plate in 75 μL of culture media. After several hours, growth media containing compounds of formula (I) are added to the wells. Compound at a maximal concentration of 5 mM was serially diluted 1:3 for a total of 8 point titration with DMSO as a control. A 1 μL aliquot of each dilution point is added to 249 μL growth media and 75 μL is added to each well containing cells, providing 10 μM compound at the maximum concentration point. The final concentration of DMSO in all wells is 0.2%. Cells are incubated for 72 hours, and 25 μL of CellTiter Glo Reagent (Promega Ga., USA) is added to each well. Plates are shaken for approximately 10 minutes and chemiluminescent signal is read on Tecan microplate reader. The measured luminescence correlates directly with cell number.
(§2) All data is normalized to the mean of eight DMSO high control wells on each plate. A four parameter curve fit of the following formula was then applied: Y=a+(b−a)/(1+(x/c)^d) Where ‘a’ is the minimum, ‘b’ is the maximum, ‘c’ is the pIC50 and ‘d’ is the Hill slope. […] Myc Reporter Assay
In MV-4-11 cells, BRD2, BRD3 and BRD4 bind to the promoter region of MYC and regulate its transcription (Dawson M A et al. 2011). The literature bromodomain inhibitor iBET 151 could disrupt BRD4 recruitment to the MYC promoter and subsequently downregulate c-myc transcription (Dawson M A et al. 2011). Myc protein is a transcription factor that heterodimerizes with an obligatory partner Max and regulates the transcription of genes important for cell proliferation, differentiation, and apoptosis. This Myc reporter assay is used to monitor the inhibitory effect of compound of formula (I) on Myc dependent gene expression. Effective compounds could have potential therapeutic effects in Myc-driven tumors.
The MV-4-11 Myc reporter cell line is established by infecting MV-4-11 with VSV-g pseudotyped lentivirus expressing the firefly luciferase gene under the control of a minimal (m) CMV promoter and tandem repeats of the E-box transcriptional response element (TRE) (Qiagen IL, USA) and selecting cells in […] Puromycin.
The MV-4-11 Myc reporter cell line is maintained in Iscove's Modified Dulbecco's Medium containing 10% FBS, 1% PenStep and 2.5 μg/ml Puromycin. Cells are incubated at 37° C. in a humidified atmosphere with 5% CO2. 25,000 cells are seeded in 96-well plate in 50 μL of culture media. After several hours, growth media containing 2× compounds are added to the wells. Compound at a maximal concentration of 5 mM is serially diluted 1:3 for a total of 8 point titration. A 1 μl aliquot of each dilution point is added to 249 μl growth media and 50 μl is added to each well containing cells, providing 10 μM compound at the maximum concentration point. DMSO treated cells serve as a high control and 10 μM JQ1 treated cells serve as a low control. Cells are incubated for a further 24 hours and 25 μL of CellTiter-Fluo Reagent (Promega Ga., USA) is added to each well. Plates are shaken for approximately 2 minutes and incubated at 37° C. for 0.5 hour. […]

[2] = tested on: MV-4-11; assay: Oncology cell growth assay MV-4-11 (CellTiter Glo, 72 hours); type: cell-based; settings: Homo sapiens, MV4-11, 72 h; MV-4-11 cell growth inhibitory activity, 3d
Text: as §1, §2
The following table provides data indicating the BRD4 biochemical inhibitory activity and MV-4-11 cell growth inhibitory activity for exemplary compounds as described herein.

IC50 [1] [µM] | IC50 [2] [µM] | SMILES
< 10 | ≤ 1 | Cc1noc(C)c1-c1cnc2[nH]cc(Cc3cccnc3)c2c1 [P-0003, 3,5-dimethyl-4-[3-(3-pyridylmethyl)-1H-pyrrolo[2,3-b]pyridin-5-yl]isoxazole]
< 10 | ≤ 1 | Cc1noc(C)c1-c1cnc2[nH]c(C)c(Cc3cccnc3)c2c1 [P-0005, 3,5-dimethyl-4-[2-methyl-3-(3-pyridylmethyl)-1H-pyrrolo[2,3-b]pyridin-5-yl]isoxazole]
< 10 | ≤ 1 | Cc1noc(C)c1-c1cnc2[nH]c(-c3ccc(F)cc3)c(Cc3cccnc3)c2c1 [P-0007, 4-[2-(4-fluorophenyl)-3-(3-pyridylmethyl)-1H-pyrrolo[2,3-b]pyridin-5-yl]-3,5-dimethyl-isoxazole]
< 10 | ≤ 1 | Cc1noc(C)c1-c1cnc2[nH]c(C)c(C(O)c3cccnc3)c2c1 (centres unmarked) [P-0009, [5-(3,5-dimethylisoxazol-4-yl)-2-methyl-1H-pyrrolo[2,3-b]pyridin-3-yl]-(3-pyridyl)methanol]
< 10 | ≤ 1 | COc1ncc(F)cc1C(OC)c1c[nH]c2ncc(-c3c(C)noc3C)cc12 (centres unmarked) [P-0011, 4-[3-[(5-fluoro-2-methoxy-3-pyridyl)-methoxy-methyl]-1H-pyrrolo[2,3-b]pyridin-5-yl]-3,5-dimethyl-isoxazole]
< 10 | 1 to 10 | Cc1noc(C)c1-c1cnc2[nH]cc(C(O)c3ccc(OCC(F)(F)F)nc3)c2c1 (centres unmarked) [P-0012, [5-(3,5-dimethylisoxazol-4-yl)-1H-pyrrolo[2,3-b]pyridin-3-yl]-[6-(2,2,2-trifluoroethoxy)-3-pyridyl]methanol]
< 10 | ≤ 1 | COC(c1ccc(C(F)(F)F)nc1)c1c[nH]c2ncc(-c3c(C)noc3C)cc12 (centres unmarked) [P-0013, 4-[3-[methoxy-[6-(trifluoromethyl)-3-pyridyl]methyl]-1H-pyrrolo[2,3-b]pyridin-5-yl]-3,5-dimethyl-isoxazole]
< 10 | ≤ 1 | COC(c1c(F)cccc1Cl)c1c[nH]c2ncc(-c3c(C)noc3C)cc12 (centres unmarked) [P-0014, 4-[3-[(2-chloro-6-fluoro-phenyl)-methoxy-methyl]-1H-pyrrolo[2.3-b]pyridin-5-yl]-3,5-dimethyl-isoxazole]
< 10 | ≤ 1 | Cc1noc(C)c1-c1cnc2[nH]cc(C(O)c3ccccc3Cl)c2c1 (centres unmarked) [P-0019, (2-chlorophenyl)-[5-(3,5-dimethylisoxazol-4-yl)-1H-pyrrolo[2,3-b]pyridin-3-yl]methanol]
< 10 | ≤ 1 | COC(c1ccccc1Cl)c1c[nH]c2ncc(-c3c(C)noc3C)cc12 (centres unmarked) [P-0020, 4-[3-[(2-chlorophenyl)-methoxy-methyl]-1H-pyrrolo[2,3-b]pyridin-5-yl]-3,5-dimethyl-isoxazole]
< 10 | ≤ 1 | Cc1noc(C)c1-c1cnc2[nH]cc(C(O)c3c(F)cccc3Cl)c2c1 (centres unmarked) [P-0021, (2-chloro-6-fluoro-phenyl)-[5-(3,5-dimethylisoxazol-4-yl)-1H-pyrrolo[2,3-b]pyridin-3-yl] methanol]
< 10 | ≤ 1 | COc1ncc(F)cc1C(O)c1c[nH]c2ncc(-c3c(C)noc3C)cc12 (centres unmarked) [P-0022, [5-(3,5-dimethylisoxazol-4-yl)-1H-pyrrolo[2,3-b]pyridin-3-yl]-(5-fluoro-2-methoxy-3-pyridyl)methanol]
< 10 | 1 to 10 | Cc1noc(C)c1-c1cnc2[nH]cc(C3(O)CCC(F)(F)CC3)c2c1 [P-0024, 1-[5-(3,5-dimethylisoxazol-4-yl)-1H-pyrrolo[2,3-b]pyridin-3-yl]-4,4-difluoro-cyclohexanol]
< 10 | 1 to 10 | COc1ncc(C(O)c2c[nH]c3ncc(-c4c(C)noc4C)cc23)cc1F (centres unmarked) [P-0025, [5-(3,5-dimethylisoxazol-4-yl)-1H-pyrrolo[2,3-b]pyridin-3-yl]-(5-fluoro-6-methoxy-3-pyridyl)methanol]
< 10 | 1 to 10 | Cc1noc(C)c1-c1cnc2[nH]cc(Cc3ccccc3Cl)c2c1 [P-0026, 4-[3-[(2-chlorophenyl)methyl]-1H-pyrrolo[2,3-b]pyridin-5-yl]-3,5-dimethyl-isoxazole]
< 10 | 1 to 10 | Cc1noc(C)c1-c1cnc2[nH]cc(Cc3c(F)cccc3Cl)c2c1 [P-0027, 4-[3-[(2-chloro-6-fluoro-phenyl)methyl]-1H-pyrrolo [2,3-b]pyridin-5-yl]-3,5-dimethyl-isoxazole]
< 10 | ≤ 1 | COc1ncc(F)cc1Cc1c[nH]c2ncc(-c3c(C)noc3C)cc12 [P-0028, 4-[3-[(5-fluoro-2-methoxy-3-pyridyl)methyl]-1H-pyrrolo[2,3-b]pyridin-5-yl]-3,5-dimethyl-isoxazole]
< 10 | 1 to 10 | Cc1noc(C)c1-c1cnc2[nH]cc(C3=CCC(F)(F)CC3)c2c1 [P-0029, 4-[3-(4,4-difluorocyclohexen-1-yl)-1H-pyrrolo[2,3-b]pyridin-5-yl]-3,5-dimethyl-isoxazole]
< 10 | ≤ 1 | Cc1noc(C)c1-c1cnc2[nH]cc(C(O)C3CCC(F)(F)CC3)c2c1 (centres unmarked) [P-0030, (4,4-difluorocyclohexyl)-[5-(3,5-dimethylisoxazol-4-yl)-1H-pyrrolo[2,3-b]pyridin-3-yl] methanol]
< 10 | 1 to 10 | Cc1noc(C)c1-c1cnc2[nH]cc(C(=O)C3CCC(F)(F)CC3)c2c1 [P-0031, (4,4-difluorocyclohexyl)-[5-(3,5-dimethylisoxazol-4-yl)-1H-pyrrolo[2,3-b]pyridin-3-yl]methanone]
< 10 | ≤ 1 | Cc1noc(C)c1-c1cnc2[nH]cc(CC3CCC(F)(F)CC3)c2c1 [P-0034, 4-[3-[(4,4-difluorocyclohexyl)methyl]-1H-pyrrolo[2,3-b]pyridin-5-yl]-3,5-dimethyl-isoxazole]
< 10 | 1 to 10 | CCCCS(=O)(=O)n1ccc2ncc(-c3c(C)noc3C)cc21 [P-0036, 4-(1-butylsulfonylpyrrolo [3,2-b]pyridin-6-yl)-3,5-dimethyl-isoxazole]
< 10 | ≤ 1 | Cc1noc(C)c1-c1cnc2ccn(S(=O)(=O)C3CCCC3)c2c1 [P-0037, 4-(1-cyclopentylsulfonylpyrrolo [3,2-b]pyridin-6-yl)-3,5-dimethyl-isoxazole]
– | ≤ 1 | Cc1noc(C)c1-c1cnc2ccn(Cc3ccccc3)c2c1 [P-0162, 4-(1-benzylpyrrolo[3,2-b]pyridin-6-yl)-3,5-dimethyl-isoxazole]
– | ≤ 1 | Cc1noc(C)c1-c1cnc2[nH]cc(P(=O)(c3ccccc3)c3ccccc3)c2c1 [P-0166, 4-(3-diphenylphosphoryl-1H-pyrrolo[2,3-b]pyridin-5-yl)-3,5-dimethyl-isoxazole]
– | ≤ 1 | Cc1noc(C)c1-c1cnc2c(-c3cnn(C(F)F)c3)cn(C(C)c3ccccc3)c2c1 (centres unmarked) [P-0177, 4-[3-[1-(difluoromethyl)pyrazol-4-yl]-1-(1-phenylethyl)pyrrolo[3,2-b]pyridin-6-yl]-3,5-dimethyl-isoxazole]
– | ≤ 1 | Cc1noc(C)c1-c1cnc2c(c1)c(Sc1ccccc1)cn2-c1cnn(C)c1 [P-0184, 3,5-dimethyl-4-[1-(1-methylpyrazol-4-yl)-3-phenylsulfanyl-pyrrolo[2,3-b]pyridin-5-yl]isoxazole]
